From publication PMC12751012, “Nanoscale Direct-to-Biology Optimization and Structural Insights into Selective S. aureus TrmD Inhibitors” (Journal of Medicinal Chemistry, 2025)

Target: T1, S. aureus TrmD (Staphylococcus aureus, UniProt Q2FZ43)
T1 construct: made in house; host or cells: E. coli BL21
T1 sequence (Q2FZ43 1-245): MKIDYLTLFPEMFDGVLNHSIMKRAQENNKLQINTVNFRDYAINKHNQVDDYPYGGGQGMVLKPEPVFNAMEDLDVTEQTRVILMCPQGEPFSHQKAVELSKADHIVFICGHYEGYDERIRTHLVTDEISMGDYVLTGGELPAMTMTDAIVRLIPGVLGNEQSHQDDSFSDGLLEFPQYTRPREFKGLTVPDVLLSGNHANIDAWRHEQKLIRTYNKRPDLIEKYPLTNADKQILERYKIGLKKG
Assay: nanoSAR direct-to-biology FP displacement screening of crude triazoles
Assay type: binding
Conditions: crude triazole at 1 μM, assuming full conversion; 500 nM TrmD, 10 nM tracer 4; read-out: % displaced tracer
Description: Next, we conducted an S. aureus TrmD-targeting nanoSAR study. For this, alkyne 7 was reacted on a 96 nmol scale with an in-house diversity-oriented azide library (N = 320, mean pairwise Tanimoto similarity = 0.11) designed to cover a large chemical fragment space, generating a panel of 320 crude triazoles ready for FP assay investigation. The composition of the azide library is designed to be chemically diverse in several categories, including physicochemical properties such as polar surface area, lipophilicity, and the number of hydrogen bond donors and acceptors, as well as structural features like the number of aromatic rings (Figure S23). A complete list of chemical structures included in the azide library can be found in Table S4. In situ reaction conditions for CuAAC were adapted from Gehrtz et al., utilizing CuSO4, which is reduced in situ to Cu(I) by sodium ascorbate and stabilized by TBTA. Degassed water and DMSO (1:1) were used as solvents to prevent the oxidation from Cu(I) to Cu(II). For the synthesis of the triazole library, a master mix was prepared, containing all reaction components except the azides. All reactions were started by the addition of the respective azide in 24 μL at a final product concentration of 4 mM (96 nmol). Reaction mixtures were incubated for 16 h at room temperature and under an argon atmosphere in sealed 96-well plates.
For FP assay screening, we used 500 nM of S. aureus TrmD and 10 nM of tracer 4 in a total volume of 40 μL in 96-well plates. We performed control measurements and defined 10 nM of tracer 4 in buffer as 100% displacement and the DMSO control as 0% tracer displacement. […] The results of the FP screening were visualized in a waterfall plot and plate-based heatmaps (Figure , Figure S3).
Fluorescence polarization (FP) assays were performed as follows. The assays for H. influenzae TrmD have been described previously. All assays were conducted in technical triplicate using black 96-well half area plates. For the FP assays, a tracer (20 nM Cy5TPD for E. coli and H. influenzae TrmD, 10 nM tracer 4 for S. aureus TrmD) was mixed with the respective enzyme (2 μM E. coli TrmD, 2 μM H. influenzae TrmD, 500 nM S. aureus TrmD) in buffer (E. coli and H. influenzae TrmD: 50 mM HEPES, 500 mM NaCl, 5% Glycerol, pH 7.5, S. aureus TrmD: 40 mM Tris HCl, 100 mM NaCl, 10 mM MgCl2, 5% Glycerol, pH 7.5). The compounds were added in varying concentrations for K D-value determination. […] The Z-factor for tracer 4 was determined by measuring 48 replicates of the free tracer (positive controls, PC) and 48 replicates of a mixture of enzyme and tracer (negative controls, NC). The Z-factor is defined in terms of the means (μ) and standard deviations (σ) of the positive and negative controls and calculated as Z = 1–(3*(σnc + σpc)/(μnc–μpc)). […] Polarization values (mP) were determined from polarization-specific parallel and orthogonal fluorescence intensities. K D-values were calculated in GraphPad Prism 8.0.1 using the four-parameter Hill equation: y(% tracer bound) = bottom + ([ligand]-slope) × (top–bottom)/([ligand]-slope + K Dslope).
A commercial azide diversity library (Enamine) containing 320 azides at a concentration of 100 mM in DMSO in a 96-well tube rack was employed for this nanoSAR study. For the reaction of the azides with alkyne 7 via CuAAC, a master mix was prepared. […] The solvents were degassed with argon to avoid oxidation of the copper(I) during the reaction. To each well of a 96-well PCR plate (Applied Biosystems MicroAmp) were added 23 μL of the master mix and 1 μL of the 100 mM azide stock. The final concentrations in the Mastermix were: 8.7 mM sodium ascorbate (8.3 mM in reaction well), 1.1 mM TBTA (1.0 mM in reaction well), 4.3 mM 7 (4.1 mM in reaction well), 1.3 mM CuSO4×5 H2O (1.2 mM in reaction well).

Row | SMILES | inhibition at 1 µM [%]
1 | O=c1[nH]cnc2[nH]cc(-c3cn(-c4ccc5c(c4)CCC5)nn3)c12 [Compound 01F08, O=C1NC=NC=2NC=C(C=3N=NN(c4cc5c(cc4)CCC5)C3)C12] | 5
2 | COC(=O)CCCn1cc(-c2c[nH]c3nc[nH]c(=O)c23)nn1 [Compound 03B10, O=C(OC)CCCN1N=NC(C=2C=3C(=O)NC=NC3NC2)=C1] | 58
3 | C[C@H](c1ccc(F)cc1Cl)n1cc(-c2c[nH]c3nc[nH]c(=O)c23)nn1 [Compound 01G11, Clc1c(ccc(F)c1)[C@H](N2N=NC(C=3C=4C(=O)NC=NC4NC3)=C2)C] | 56
4 | O=C1c2ccccc2C(=O)N1CCn1cc(-c2c[nH]c3nc[nH]c(=O)c23)nn1 [Compound 01H05, O=C1N(C(=O)c2c1cccc2)CCN3N=NC(C=4C=5C(=O)NC=NC5NC4)=C3] | 13
5 | O=c1[nH]cnc2[nH]cc(-c3cn(C[C@@H]4CC[C@@H]5C[C@@H]5C4)nn3)c12 [Compound 03A07, O=C1NC=NC=2NC=C(C=3N=NN(C3)C[C@H]4C[C@@H]5[C@@H](C5)CC4)C12] | 84
6 | O=c1[nH]cnc2[nH]cc(-c3cn(-c4ccc5c(c4)CNCC5)nn3)c12 [Compound 01G04, O=C1NC=NC=2NC=C(C=3N=NN(c4cc5c(cc4)CC[NH2+]C5)C3)C12] | 33
7 | C[C@H]1CCCC[C@]1(C)n1cc(-c2c[nH]c3nc[nH]c(=O)c23)nn1 [Compound 04D02, O=C1NC=NC=2NC=C(C=3N=NN(C3)[C@@]4([C@H](CCCC4)C)C)C12] | 27
8 | O=c1[nH]cnc2[nH]cc(-c3cn(C[C@@H]4CCCC4(F)F)nn3)c12 [Compound 01F12, F[C@@]1(F)[C@H](CN2N=NC(C=3C=4C(=O)NC=NC4NC3)=C2)CCC1] | 79
9 | O=c1[nH]cnc2[nH]cc(-c3cn([C@H]4CC5(CCC5)Oc5ccc(F)cc54)nn3)c12 [Compound 03B06, Fc1cc2c(OC3(C[C@@H]2N4N=NC(C=5C=6C(=O)NC=NC6NC5)=C4)CCC3)cc1] | 70
10 | CN(C)c1cccc(OCCCn2cc(-c3c[nH]c4nc[nH]c(=O)c34)nn2)c1 [Compound 03E12, O=C1NC=NC=2NC=C(C=3N=NN(C3)CCCOc4cc(N(C)C)ccc4)C12] | 80
11 | CS(=O)(=O)NCCn1cc(-c2c[nH]c3nc[nH]c(=O)c23)nn1 [Compound 01F03, S(=O)(=O)(NCCN1N=NC(C=2C=3C(=O)NC=NC3NC2)=C1)C] | 62
12 | O=c1[nH]cnc2[nH]cc(-c3cn(-c4ccc(-c5ccccc5)cc4)nn3)c12 [Compound 02B05, O=C1NC=NC=2NC=C(C=3N=NN(c4ccc(c5ccccc5)cc4)C3)C12] | 3
13 | CC(C)(C)OC(=O)N1CC[C@H](C2CC2)[C@H]1Cn1cc(-c2c[nH]c3nc[nH]c(=O)c23)nn1 [Compound 04C03, O=C(OC(C)(C)C)N1[C@@H]([C@@H](C2CC2)CC1)CN3N=NC(C=4C=5C(=O)NC=NC5NC4)=C3] | 52
14 | O=c1[nH]cnc2[nH]cc(-c3cn(-c4ccc(S(F)(F)(F)(F)F)cc4)nn3)c12 [Compound 03A04, S(F)(F)(F)(F)(F)c1ccc(N2N=NC(C=3C=4C(=O)NC=NC4NC3)=C2)cc1] | 16
15 | CC(C)CN1CCO[C@H](Cn2cc(-c3c[nH]c4nc[nH]c(=O)c34)nn2)C1 [Compound 01G03, O=C1NC=NC=2NC=C(C=3N=NN(C3)C[C@H]4OCC[N@H+](C4)CC(C)C)C12] | 46
16 | Nc1ccc(Cl)c(-n2cc(-c3c[nH]c4nc[nH]c(=O)c34)nn2)c1 [Compound 02E08, Clc1c(N2N=NC(C=3C=4C(=O)NC=NC4NC3)=C2)cc(N)cc1] | 13
17 | O=c1[nH]cnc2[nH]cc(-c3cn(C[C@@H]4CC[C@H]4C(F)(F)F)nn3)c12 [Compound 01C12, FC(F)(F)[C@H]1[C@H](CN2N=NC(C=3C=4C(=O)NC=NC4NC3)=C2)CC1] | 47

Row | SMILES | inhibition at 1 µM [%]
18 | O=c1[nH]cnc2[nH]cc(-c3cn(C[C@H](O)C(F)(F)F)nn3)c12 [Compound 03D12, FC(F)(F)[C@@H](O)CN1N=NC(C=2C=3C(=O)NC=NC3NC2)=C1] | 71
19 | COC(=O)c1sccc1-n1cc(-c2c[nH]c3nc[nH]c(=O)c23)nn1 [Compound 01D11, S1C(C(=O)OC)=C(N2N=NC(C=3C=4C(=O)NC=NC4NC3)=C2)C=C1] | 21
20 | CC(C)CSCCCn1cc(-c2c[nH]c3nc[nH]c(=O)c23)nn1 [Compound 02A03, S(CC(C)C)CCCN1N=NC(C=2C=3C(=O)NC=NC3NC2)=C1] | 35
21 | Cc1ccc(-n2cc(-c3c[nH]c4nc[nH]c(=O)c34)nn2)nc1 [Compound 03F10, O=C1NC=NC=2NC=C(C=3N=NN(c4ncc(cc4)C)C3)C12] | 18
22 | CCOCCn1cc(-c2c[nH]c3nc[nH]c(=O)c23)nn1 [Compound 01B12, O=C1NC=NC=2NC=C(C=3N=NN(C3)CCOCC)C12] | 21
23 | Cc1cc(F)ccc1[C@H](C)n1cc(-c2c[nH]c3nc[nH]c(=O)c23)nn1 [Compound 03F07, Fc1cc(c(cc1)[C@@H](N2N=NC(C=3C=4C(=O)NC=NC4NC3)=C2)C)C] | 51
24 | O=C(c1ncon1)n1cc(-c2c[nH]c3nc[nH]c(=O)c23)nn1 [Compound 02E12, O=C(N1N=NC(C=2C=3C(=O)NC=NC3NC2)=C1)C4=NOC=N4] | 1.83
25 | Cc1ccc([C@@H](O)[C@H](C)n2cc(-c3c[nH]c4nc[nH]c(=O)c34)nn2)cc1 [Compound 01D10, O=C1NC=NC=2NC=C(C=3N=NN(C3)[C@H]([C@H](O)c4ccc(cc4)C)C)C12] | 49
26 | N[C@]12CC[C@](n3cc(-c4c[nH]c5nc[nH]c(=O)c45)nn3)(CC1)C2 [Compound 02D10, O=C1NC=NC=2NC=C(C=3N=NN(C3)[C@]45C[C@]([NH3+])(CC4)CC5)C12] | 11
27 | O=c1[nH]cnc2[nH]cc(-c3cn(Cc4nccs4)nn3)c12 [Compound 04G04, S1C(=NC=C1)CN2N=NC(C=3C=4C(=O)NC=NC4NC3)=C2] | 68
28 | COc1ccc(C)cc1[C@@H](C)n1cc(-c2c[nH]c3nc[nH]c(=O)c23)nn1 [Compound 04E04, O=C1NC=NC=2NC=C(C=3N=NN(C3)[C@@H](c4c(OC)ccc(c4)C)C)C12] | 65
29 | O=c1[nH]cnc2[nH]cc(-c3cn(C4CCOCC4)nn3)c12 [Compound 02B04, O=C1NC=NC=2NC=C(C=3N=NN(C3)C4CCOCC4)C12] | 10
30 | C[C@H](c1csc2ccccc12)n1cc(-c2c[nH]c3nc[nH]c(=O)c23)nn1 [Compound 04H01, S1c2c(cccc2)C(=C1)[C@H](N3N=NC(C=4C=5C(=O)NC=NC5NC4)=C3)C] | 87
31 | O=c1[nH]cnc2[nH]cc(-c3cn(C[C@@H]4CNCCO4)nn3)c12 [Compound 02D04, O=C1NC=NC=2NC=C(C=3N=NN(C3)C[C@H]4OCC[NH2+]C4)C12] | 24
32 | O=c1[nH]cnc2[nH]cc(-c3cn(C[C@@H]4CCCN4)nn3)c12 [Compound 03C09, O=C1NC=NC=2NC=C(C=3N=NN(C3)C[C@H]4[NH2+]CCC4)C12] | 58
33 | O=c1[nH]cnc2[nH]cc(-c3cn(CC4CCCCC4)nn3)c12 [Compound 01B10, O=C1NC=NC=2NC=C(C=3N=NN(C3)CC4CCCCC4)C12] | 33
